{"source": "patent US12064440B2", "about": "“Ophthalmic gel compositions of bimatoprost and timolol and associated methods” (Somerset Therapeutics, LLC, priority 2022, dated 2024)", "origin": "cited, not measured here", "conditions": "under certain conditions"}
{"smiles": "CC(C)OC(=O)CCC/C=C\\C[C@@H]1[C@@H](CC[C@@H](O)CCc2ccccc2)[C@H](O)C[C@@H]1O", "note": "[latanoprost]", "values": [{"measurement": "active pharmaceutical ingredient (API) stability", "result": "degradation"}]}
{"smiles": "CC(C)OC(=O)CCC/C=C\\C[C@@H]1[C@@H](/C=C/[C@@H](O)COc2cccc(C(F)(F)F)c2)[C@H](O)C[C@@H]1O", "note": "[travoprost]", "values": [{"measurement": "active pharmaceutical ingredient (API) stability", "result": "degradation"}]}
{"smiles": "CCNC(=O)CCC/C=C\\C[C@@H]1[C@@H](/C=C/[C@@H](O)CCc2ccccc2)[C@H](O)C[C@@H]1O", "note": "[bimatoprost, (Z)-7-[(1R, 2R, 3R, 5S)-3,5-Dihydroxy-2-[(1E, 3S)-3-hydroxy-5-phenyl-1-pentenyl]cyclopentyl]-5-N-ethylheptenamid]", "values": [{"measurement": "active pharmaceutical ingredient (API) stability", "result": "remain stable"}]}
